Results taken from US9878982B2, “Pyridine derivatives and anti-mycobacterial use thereof” (priority 2014, dated 2018).
In brackets after ≈: the same amount, converted by molar mass.

Tests used:
[1] = Hela cell cytotoxicity (CC50); conditions: human, HeLa cells (human cervical cancer cells), CC50_Hela, half of the toxic concentration
Vero Cell = assay: Vero cell cytotoxicity (IC50); assay type: cell-based; conditions: Chlorocebus sabaeus, Vero, African green monkey kidney cells
[2] = test system: Mycobacterium smegmatis strain ATCC19420; assay: In vitro efficacy test using Mycobacterium smegmatis strain ATCC19420 (MIC); assay type: cell-based; conditions: Mycolicibacterium smegmatis, ATCC19420, 72 h, CA-MHB + 0.02% Tween 80, 30° C., read after 72 hours
M. tuberculosis H37R = assay: microbe, parasite or virus in culture; assay type: cell-based, Mycobacterium tuberculosis; conditions: Mycobacterium tuberculosis, H37R; read-out: M. tuberculosis H37R LORA (MIC)
M. tuberculosis H37Rv = assay: In vitro efficacy test using the H37Rv strain, Microplate Alamar Blue Assay (MABA) MIC; assay type: cell-based, Mycobacterium tuberculosis; conditions: Mycobacterium tuberculosis, H37RV, aerobic; 7H9 medium, Alamar Blue; read-out: M. tuberculosis H37Rv MABA (MIC)

SMILES | CC50 [1] [µg/mL] | IC50 (Vero Cell) [µg/mL] | MIC [2] [µg/mL] | MIC (M. tuberculosis H37R) [µg/mL] | MIC (M. tuberculosis H37Rv) [µg/mL]
COc1ncc(-c2ccsn2)cc1C(c1ccccc1)C(O)(CCN(C)C)c1cccc2ccccc12 (stereo not drawn) [Compound 145, 4-(dimethylamino)-1-(5-(isothiazol-3-yl)-2-methoxypyridin-3-yl)-2-(naphthalen-1-yl)-1-phenylbutan-2-ol] | 12.7 (≈ 24.8 µM) | 25.1 (≈ 49.2 µM) | 0.0625 | 1.57 (≈ 3.08 µM) | 0.97 (≈ 1.9 µM)
COc1ncc(-c2cccc(C#N)c2)cc1C(c1ccccc1)C(O)(CCN(C)C)c1cccc2ccccc12 (stereo not drawn) [Compound 153, 3-(5-(4-(dimethylamino)-2-hydroxyl-2-(naphthalen-1-yl)-1-phenylbutyl)-6-methoxypyridin-3-yl)-benzonitrile] | > 64 | > 32 | 0.25 | 2.54 (≈ 4.81 µM) | 0.96 (≈ 1.82 µM)
COc1ncc(-c2ccc(C#N)cc2)cc1C(c1ccccc1)C(O)(CCN(C)C)c1cccc2ccccc12 (stereo not drawn) [Compound 157, 4-(5-(4-(dimethylamino)-2-hydroxyl-2-(naphthalen-1-yl)-1-phenylbutyl)-6-methoxypyridin-3-yl)-benzonitrile] | > 64 | > 32 | 0.0312 | 0.77 (≈ 1.46 µM) | 0.44 (≈ 0.834 µM)
COc1ncc(-c2cscn2)cc1C(c1ccccc1)C(O)(CCN(C)C)c1cccc2ccccc12 (stereo not drawn) [Compound 161, 4-(dimethylamino)-1-(2-methoxy-5-(thiazol-4-yl)pyridin-3-yl)-2-(naphthalen-1-yl)-1-phenylbutan-2-ol] | 14.4 (≈ 28.3 µM) | 25.1 (≈ 49.1 µM) | 0.125 | 4.24 (≈ 8.32 µM) | 1.6 (≈ 3.14 µM)
COc1ncc(-c2cnsc2)cc1C(c1ccccc1)C(O)(CCN(C)C)c1cccc2ccccc12 (stereo not drawn) [Compound 165, 4-(dimethylamino)-1-(5-(isothiazol-4-yl)-2-methoxypyridin-3-yl)-2-(naphthalen-1-yl)-1-phenylbutan-2-ol] | 28.8 (≈ 56.5 µM) | 26.3 (≈ 51.6 µM) | 0.25 | 3.94 (≈ 7.73 µM) | 1.98 (≈ 3.88 µM)
COc1ncc(-c2nccs2)cc1C(c1ccccc1)C(O)(CCN(C)C)c1cccc2ccccc12 (stereo not drawn) [Compound 169, 4-(dimethylamino)-1-(2-methoxy-5-(thiazol-2-yl)pyridin-3-yl)-2-(naphthalen-1-yl)-1-phenylbutan-2-ol] | 19.3 (≈ 37.8 µM) | 25.9 (≈ 50.7 µM) | 0.25 | 4.95 (≈ 9.71 µM) | 1.73 (≈ 3.39 µM)
COc1ncc(-c2cncs2)cc1C(c1ccccc1)C(O)(CCN(C)C)c1cccc2ccccc12 (stereo not drawn) [Compound 171, 4-(dimethylamino)-1-(2-methoxy-5-(thiazol-5-yl)pyridin-3-yl)-2-(naphthalen-1-yl)-1-phenylbutan-2-ol] | 14.3 (≈ 28.2 µM) | 25.4 (≈ 49.7 µM) | 0.125 | 2.86 (≈ 5.61 µM) | 1.7 (≈ 3.34 µM)
COc1ncc(C(C)C)cc1C(c1ccccc1)C(O)(CCN(C)C)c1cccc2ccccc12 (stereo not drawn) [Compound 175, 4-(dimethylamino)-1-(5-isopropyl-2-methoxypyridin-3-yl)-2-(naphthalen-1-yl)-1-phenylbutan-2-ol] | 27.6 (≈ 59 µM) | > 50 | 0.25 | 2.83 (≈ 6.04 µM) | 1.42 (≈ 3.03 µM)
COc1ncc(C(C)(C)C)cc1C(c1ccccc1)C(O)(CCN(C)C)c1cccc2ccccc12 (stereo not drawn) [Compound 177, 1-(5-tert-butyl-2-methoxypyridin-3-yl)-4-dimethylamino-2-(naphthalen-1-yl)-1-phenylbutan-2-ol] | > 64 | 27.6 (≈ 57.2 µM) | 0.125 | 1.81 (≈ 3.75 µM) | 1.74 (≈ 3.6 µM)
COc1ncc(-c2ccoc2)cc1C(c1ccccc1)C(O)(CCN(C)C)c1cccc2ccccc12 (stereo not drawn) [Compound 178, 4-(dimethylamino)-1-(5-(furan-3-yl)-2-methoxypyridin-3-yl)-2-(naphthalen-1-yl)-1-phenylbutan-2-ol] | 25.8 (≈ 52.3 µM) | 25.5 (≈ 51.8 µM) | 0.0312 | 0.88 (≈ 1.79 µM) | 0.78 (≈ 1.58 µM)
COc1ncc(-c2ccco2)cc1C(c1ccccc1)C(O)(CCN(C)C)c1cccc2ccccc12 (stereo not drawn) [Compound 183, 4-(dimethylamino)-1-(5-(furan-2-yl)-2-methoxypyridin-3-yl)-2-(naphthalen-1-yl)-1-phenylbutan-2-ol] | > 64 | 24.5 (≈ 49.8 µM) | ≤ 0.0625 | 1.33 (≈ 2.7 µM) | 0.5 (≈ 1.01 µM)
COc1cccc(C(c2cc(-c3ccccc3)cnc2OC)C(O)(CCN(C)C)c2cc(F)cc(F)c2)c1OC (stereo not drawn) [Compound 207, 2-(3,5-difluorophenyl)-1-(2,3-dimethoxyphenyl)-4-(dimethylamino)-1-(2-methoxy-5-phenylpyridin-3-yl)butan-2-ol] | 10.3 (≈ 18.7 µM) | 25.7 (≈ 46.8 µM) | ≤ 0.0625 | 0.99 (≈ 1.8 µM) | 0.96 (≈ 1.75 µM)
COc1cccc(C(c2cc(-c3ccccc3)cnc2OC)C(O)(CCN(C)C)c2cccc(Cl)c2)c1OC (stereo not drawn) [Compound 209, 2-(3-chlorophenyl)-1-(2,3-dimethoxyphenyl)-4-(dimethylamino)-1-(2-methoxy-5-phenylpyridin-3-yl)butan-2-ol] | 13.3 (≈ 24.3 µM) | 27.3 (≈ 49.9 µM) | 0.0312 | 0.84 (≈ 1.54 µM) | 0.89 (≈ 1.63 µM)
COc1cccc(C(c2cc(-c3ccccc3)cnc2OC)C(O)(CCN(C)C)c2cc(Cl)cc(Cl)c2)c1OC (stereo not drawn) [Compound 213, 2-(3,5-dichlorophenyl)-1-(2,3-dimethoxyphenyl)-4-(dimethylamino)-1-(2-methoxy-5-phenylpyridin-3-yl)butan-2-ol] | > 64 | 25.2 (≈ 43.3 µM) | ≤ 0.0625 | 0.46 (≈ 0.791 µM) | 0.125 (≈ 0.215 µM)
CCOc1ncc(-c2ccccc2)cc1C(c1ccccc1)C(O)(CCN(C)C)c1cccc2ccccc12 (stereo not drawn) [Compound 217, 4-(dimethylamino)-1-(2-ethoxy-5-phenylpyridin-3-yl)-2-(naphthalen-1-yl)-1-phenylbutan-2-ol] | > 64 | > 32 | ≤ 0.0625 | 1.66 (≈ 3.21 µM) | 0.41 (≈ 0.794 µM)
COc1cccc(C(c2cc(-c3ccccc3)cnc2OC)C(O)(CCN(C)C)c2ccccc2)c1F (stereo not drawn) [Compound 226, 4-(dimethylamino)-1-(2-fluoro-3-methoxyphenyl)-1-(2-methoxy-5-phenylpyridin-3-yl)-2-phenylbutan-2-ol] | 13.1 (≈ 26.2 µM) | 25.5 (≈ 50.9 µM) | 0.125 | 0.97 (≈ 1.94 µM) | 0.44 (≈ 0.879 µM)
COc1ccc(C(c2cc(-c3ccccc3)cnc2OC)C(O)(CCN(C)C)c2ccccc2)cc1 (stereo not drawn) [Compound 237, 4-(dimethylamino)-1-(2-methoxy-5-phenylpyridin-3-yl)-1-(4-methoxyphenyl)-2-phenylbutan-2-ol] | 15.6 (≈ 32.4 µM) | 24.3 (≈ 50.3 µM) | 0.5 | 3.07 (≈ 6.36 µM) | 1.89 (≈ 3.92 µM)
COc1ncc(-c2csc(Cl)c2)cc1C(c1ccccc1)C(O)(CCN(C)C)c1cccc2ccccc12 (stereo not drawn) [Compound 245, 1-(5-(5-chlorothiophen-3-yl)-2-methoxypyridin-3-yl)-4-(dimethylamino)-2-(naphthalen-1-yl)-1-phenylbutan-2-ol] | > 64 | > 32 | ≤ 0.0625 | 1.39 (≈ 2.56 µM) | 0.86 (≈ 1.58 µM)
COc1ncc(-c2ccsc2Cl)cc1C(c1ccccc1)C(O)(CCN(C)C)c1cccc2ccccc12 (stereo not drawn) [Compound 251, 1-(5-(2-chlorothiophen-3-yl)-2-methoxypyridin-3-yl)-4-(dimethylamino)-2-(naphthalen-1-yl)-1-phenylbutan-2-ol] | > 64 | > 32 | 0.25 | 1.39 (≈ 2.56 µM) | 0.64 (≈ 1.18 µM)
COc1ncc(C2CCSCC2)cc1C(c1ccccc1)C(O)(CCN(C)C)c1cccc2ccccc12 (stereo not drawn) [Compound 255, 4-(dimethylamino)-1-(2-methoxy-5-(tetrahydro-2H-thiopyran-4-yl)pyridin-3-yl)-2-(naphthalen-1-yl)-1-phenylbutan-2-ol] | > 64 | > 32 | 0.25 | 8.33 (≈ 15.8 µM) | 0.48 (≈ 0.911 µM)
COc1ncc(C2=CCSCC2)cc1C(c1ccccc1)C(O)(CCN(C)C)c1cccc2ccccc12 (stereo not drawn) [Compound 259, 1-(5-(3,6-dihydro-2H-thiopyran-4-yl)-2-methoxypyridin-3-yl)-4-(dimethylamino)-2-(naphthalen-1-yl)-1-phenylbutan-2-ol] | > 64 | > 32 | 0.125 | 4.33 (≈ 8.25 µM) | 0.32 (≈ 0.61 µM)
